From patent US9125913B2, “Bcl-2-selective apoptosis-inducing agents for the treatment of cancer and immune diseases” (AbbVie Inc., priority 2008, dated 2015)

Experiments:
[1] = system: GST-Bcl-2; assay: TR-FRET binding assay, Bcl-2; conditions: TR-FRET Ki values
Summary of the method: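 Ki values come from Wang's competitive-binding equation applied to TR-FRET signal (excitation 340/35 nm; emission 520/525 nm F-Bak peptide, 495/510 nm Tb antibody). Protein, probe and antibody incubated with compound 3 h at room temperature; dilution series began at 50 μM as 2× stock in 10% DMSO.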

[2] = system: FL5.12/Bcl-2 cells; assay: FL5.12/Bcl-2 cell viability assay; format: cell-based, murine; conditions: ratio of canine platelet EC50 to FL5.12/Bcl-2 EC50
Summary of the method: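 Murine IL-3-dependent FL5.12 cells stably overexpressing Bcl-2 were deprived of IL-3 (WEHI-3B conditioned medium omitted) for 48 hrs, then exposed to various compound concentrations for a further 24 hrs at 37° C, 5% CO2. Viability was read by CellTitre Glo luminescence.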

O=C(NS(=O)(=O)c1ccc(NCCCN2CCCC2)c([N+](=O)[O-])c1)c1ccc(N2CCN(CC3=C(c4ccc(Cl)cc4)CCCCCC3)CC2)cc1Oc1cccc2[nH]ccc12 [Example 142, 4-(4-{[2-(4-chlorophenyl)cyclooct-1-en-1-yl]methyl}piperazin-1-yl)-2-(1H-indol-4-yloxy)-N-({3-nitro-4-[(3-pyrrolidin-1-ylpropyl)amino]phenyl}sulfonyl)benzamide]
Binding selectivity ratio (Bcl-XL Ki/Bcl-2 Ki) [1]: 27.8
Selectivity Ratio (Platelet EC50/FL5.12/Bcl-2 EC50) [2]: >185

O=C(NS(=O)(=O)c1ccc(NCCCN2CCCC2)c([N+](=O)[O-])c1)c1ccc(N2CCN(CC3=C(c4ccc(Cl)cc4)CCC3)CC2)cc1Oc1cccc2[nH]ccc12 [Example 143, 4-(4-{[2-(4-chlorophenyl)cyclopent-1-en-1-yl]methyl}piperazin-1-yl)-2-(1H-indol-4-yloxy)-N-({3-nitro-4-[(3-pyrrolidin-1-ylpropyl)amino]phenyl}sulfonyl)benzamide]
Binding selectivity ratio (Bcl-XL Ki/Bcl-2 Ki) [1]: 33.8
Selectivity Ratio (Platelet EC50/FL5.12/Bcl-2 EC50) [2]: >251

CN1CCC(Nc2ccc(S(=O)(=O)NC(=O)c3ccc(N4CCN(CC5=C(c6ccc(Cl)cc6)CC(C)(C)C5)CC4)cc3Oc3cccc4[nH]ccc34)cc2[N+](=O)[O-])CC1 [Example 144, 4-(4-{[2-(4-chlorophenyl)-4,4-dimethylcyclopent-1-en-1-yl]methyl}piperazin-1-yl)-2-(1H-indol-4-yloxy)-N-({4-[(1-methylpiperidin-4-yl)amino]-3-nitrophenyl}sulfonyl)benzamide]
Binding selectivity ratio (Bcl-XL Ki/Bcl-2 Ki) [1]: >12.2
Selectivity Ratio (Platelet EC50/FL5.12/Bcl-2 EC50) [2]: 864

CN1CCC(Nc2ccc(S(=O)(=O)NC(=O)c3ccc(N4CCN(CC5=C(c6ccc(Cl)cc6)CC(C)(C)OC5)CC4)cc3Oc3cccc4[nH]ccc34)cc2[N+](=O)[O-])CC1 [Example 145, 4-(4-{[4-(4-chlorophenyl)-6,6-dimethyl-5,6-dihydro-2H-pyran-3-yl]methyl}piperazin-1-yl)-2-(1H-indol-4-yloxy)-N-({4-[(1-methylpiperidin-4-yl)amino]-3-nitrophenyl}sulfonyl)benzamide]
Binding selectivity ratio (Bcl-XL Ki/Bcl-2 Ki) [1]: 401
Selectivity Ratio (Platelet EC50/FL5.12/Bcl-2 EC50) [2]: 730

CN1CCC(Nc2ccc(S(=O)(=O)NC(=O)c3ccc(N4CCN(CC5=C(c6ccc(Cl)cc6)CCCCCC5)CC4)cc3Oc3cccc4[nH]ccc34)cc2[N+](=O)[O-])CC1 [Example 146, 4-(4-{[2-(4-chlorophenyl)cyclooct-1-en-1-yl]methyl}piperazin-1-yl)-2-(1H-indol-4-yloxy)-N-({4-[(1-methylpiperidin-4-yl)amino]-3-nitrophenyl}sulfonyl)benzamide]
Binding selectivity ratio (Bcl-XL Ki/Bcl-2 Ki) [1]: >14.9
Selectivity Ratio (Platelet EC50/FL5.12/Bcl-2 EC50) [2]: 145

CN1CCC(Nc2ccc(S(=O)(=O)NC(=O)c3ccc(N4CCN(CC5=C(c6ccc(Cl)cc6)CCCCC5)CC4)cc3Oc3cccc4[nH]ccc34)cc2[N+](=O)[O-])CC1 [Example 147, 4-(4-{[2-(4-chlorophenyl)cyclohept-1-en-1-yl]methyl}piperazin-1-yl)-2-(1H-indol-4-yloxy)-N-({4-[(1-methylpiperidin-4-yl)amino]-3-nitrophenyl}sulfonyl)benzamide]
Binding selectivity ratio (Bcl-XL Ki/Bcl-2 Ki) [1]: >1284.0
Selectivity Ratio (Platelet EC50/FL5.12/Bcl-2 EC50) [2]: 1895

CN1CCC(Nc2ccc(S(=O)(=O)NC(=O)c3ccc(N4CCN(CC5=C(c6ccc(Cl)cc6)CCCC5)CC4)cc3Oc3cccc4[nH]ccc34)cc2[N+](=O)[O-])CC1 [Example 149, 4-(4-{[2-(4-chlorophenyl)cyclohex-1-en-1-yl]methyl}piperazin-1-yl)-2-(1H-indol-4-yloxy)-N-({4-[(1-methylpiperidin-4-yl)amino]-3-nitrophenyl}sulfonyl)benzamide]
Binding selectivity ratio (Bcl-XL Ki/Bcl-2 Ki) [1]: >2490.6
Selectivity Ratio (Platelet EC50/FL5.12/Bcl-2 EC50) [2]: 1298
